These results are taken from article PMC8584989 (International Journal of Molecular Sciences, 2021).

Series [1] deals with T1, ABCB1 (Homo sapiens, UniProt P08183). In words: Inhibitory accumulation assay in MDCKII-ABCB1 cells. In kind it is cell-based. The procedure: (§1) Accumulation assays were performed as described previously. […] The daunorubicin and mitoxantrone accumulation assays were performed in above mentioned cell lines and were also adopted to primary NSCLC cultures. […] Cells were incubated up to 70-80% confluence for approximately 24 h. […] The cells there trypsinized on ice, resuspended with 2% FBS in cold PBS solution and then fluorescence was detected using flow cytometer (BD FACSCanto II, Allschwil, Switzerland). […] For data presentation, the ratios of relative fluorescence units (RFUs) from treated samples to RFUs from vehicle-treated (control) cells were computed generating “relative substrate accumulation”.
T1 sequence (P08183 whole entry): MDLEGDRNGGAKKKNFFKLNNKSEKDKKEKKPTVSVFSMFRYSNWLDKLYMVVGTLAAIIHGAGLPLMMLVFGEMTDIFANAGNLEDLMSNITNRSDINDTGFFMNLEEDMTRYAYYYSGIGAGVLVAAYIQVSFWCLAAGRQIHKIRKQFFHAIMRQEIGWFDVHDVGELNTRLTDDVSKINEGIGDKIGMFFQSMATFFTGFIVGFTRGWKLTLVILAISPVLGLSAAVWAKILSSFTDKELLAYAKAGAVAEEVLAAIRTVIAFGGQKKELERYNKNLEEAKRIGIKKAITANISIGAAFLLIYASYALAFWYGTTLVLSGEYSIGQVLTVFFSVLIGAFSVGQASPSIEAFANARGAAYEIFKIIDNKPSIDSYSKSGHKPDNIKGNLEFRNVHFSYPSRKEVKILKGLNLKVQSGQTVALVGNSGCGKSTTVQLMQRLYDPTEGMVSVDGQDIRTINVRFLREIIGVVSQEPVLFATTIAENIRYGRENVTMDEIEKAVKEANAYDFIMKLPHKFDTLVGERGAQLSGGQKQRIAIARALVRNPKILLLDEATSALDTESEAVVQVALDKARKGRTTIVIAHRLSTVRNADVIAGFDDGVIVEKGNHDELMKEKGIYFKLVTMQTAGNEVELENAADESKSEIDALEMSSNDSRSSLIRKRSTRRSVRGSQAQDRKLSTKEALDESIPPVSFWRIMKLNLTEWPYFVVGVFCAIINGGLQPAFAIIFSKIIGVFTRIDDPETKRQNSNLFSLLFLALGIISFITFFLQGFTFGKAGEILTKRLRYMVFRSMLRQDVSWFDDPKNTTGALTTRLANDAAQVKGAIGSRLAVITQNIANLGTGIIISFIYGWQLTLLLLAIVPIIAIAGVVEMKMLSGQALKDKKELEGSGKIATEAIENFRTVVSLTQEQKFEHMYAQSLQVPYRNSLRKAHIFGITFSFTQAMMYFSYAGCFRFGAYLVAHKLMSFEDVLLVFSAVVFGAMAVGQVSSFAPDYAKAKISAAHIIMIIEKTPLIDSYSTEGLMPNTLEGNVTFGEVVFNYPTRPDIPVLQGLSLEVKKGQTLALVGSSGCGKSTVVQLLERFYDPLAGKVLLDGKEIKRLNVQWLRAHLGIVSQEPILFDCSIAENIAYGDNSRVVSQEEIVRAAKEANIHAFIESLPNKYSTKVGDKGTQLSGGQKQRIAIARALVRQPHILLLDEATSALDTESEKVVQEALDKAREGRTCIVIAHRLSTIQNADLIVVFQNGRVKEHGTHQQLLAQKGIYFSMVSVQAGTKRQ

Series [2] deals with ABCC1 (Homo sapiens, UniProt P33527). In words: Inhibitory accumulation assay in MDCKII-ABCC1 cells. Type of series: cell-based. The procedure:
as §1

Series [3] addresses T2, CYP1A2 (Homo sapiens, UniProt P05177).
T2 construct: purchased Thermo Fisher Scientific
Put plainly: Vivid CYP450 Screening Kit, recombinant CYP1A2. In kind it is in vitro ADME. The protocol: (§2) CYP inhibitory assay was performed using Vivid CYP450 screening kit as described previously. The kits consist of microsomal fraction containing human CYP isoforms, human CYP reductase and in several cases cytochrome b5. Experiments were performed following the manufacturer’s protocol on black 96-well plates using kinetic mode. […] Then, the master mix (CYP isoenzyme with an NADPH regeneration system in buffer) was added in each well and plate was pre-incubated for 10 min. The reaction was started with the mixture of NADP^+ and Vivid substrate and the fluorescence of samples was measured in 1 min interval for 60 min using an Infinite M200 Pro microplate reader (Tecan, Männedorf, Switzerland). Data from linear phase (15 min) were used for data evaluation.

In series [4] the target is T3, CYP3A5 (Homo sapiens, UniProt P20815).
T3 construct: purchased Thermo Fisher Scientific
In words: Vivid CYP450 Screening Kit, recombinant CYP3A5. Type of series: in vitro ADME. The procedure:
as §2

Series [5] concerns the target T4, CYP2B6 (Homo sapiens, UniProt P20813).
T4 construct: purchased Thermo Fisher Scientific
In words: Vivid CYP450 Screening Kit, recombinant CYP2B6. In kind it is in vitro ADME. Conditions: recombinant enzyme; read-out: CYP2B6 inhibition IC50. The protocol: as §2

Series [6] has as its target T5, CYP2C8 (Homo sapiens, UniProt P10632).
T5 construct: purchased Thermo Fisher Scientific
Put plainly: Vivid CYP450 Screening Kit, recombinant CYP2C8. Type of series: in vitro ADME. Conditions: recombinant enzyme; read-out: CYP2C8 inhibition IC50. The procedure: as §2

Series [7] concerns the target T6, CYP2D6 (Homo sapiens, UniProt P10635).
T6 construct: purchased Thermo Fisher Scientific
In words: Vivid CYP450 Screening Kit, recombinant CYP2D6. In kind it is in vitro ADME. The procedure: as §2

For series [8], the system named is A431-ABCC1 cells. Put plainly: MTT proliferation assay (comparative viability). In kind it is cell-based. Conditions: single drug, 48 h. The procedure:
These colorimetric assays were used in various studies presented in this paper (prior induction studies, MDR reversal experiments and comparative viability assays) and were performed as reported previously. […] In MTT experiments, cells were seeded on a 96-well culture plate at densities (in number of cells/well) of 1.3 × 10^4 for MDCKII-par, MDCKII-ABCB1 and MDCKII-ABCG2; 1.2 × 10^4 for A431-par, A431-ABCB1, A431-ABCG2 and A431-ABCC1; 1.2 × 10^4 for NCI-H1299; 1.0 × 10^4 for A459; 2.0 × 10^4 for Caco-2; 5.0 × 10^4 for LS174T; and 1.0 × 10^4 for primary NSCLC explants. On the other hand, for XTT cells were seeded with densities 2.0 × 10^4 for HL60-par, HL60-ABCB1, HL60-ABCG2 and HL60-ABCC1 cells/well on 96-well plates. […] Following 48 h incubation with drugs, Opti-MEM solutions of MTT or XTT (1 mg/mL) with phenazine methosulfate solution (7.50 μg/mL; only for XTT) was added and the cells were incubated for 1 h with the exception of HL60s that were incubated for 5 h.
For orientation: Tetrazolium dyes change colour on reduction, which living cells bring about.

In series [9] the test system is patient-derived NSCLC explants. In words: Daunorubicin and mitoxantrone accumulation in primary NSCLC explants. Type of series: cell-based, human. Conditions: six primary cultures; predominantly those with higher transporters' expression levels. The source says:
Tumor biopsies were donated by NSCLC patients at the Department of Cardiac Surgery, University Hospital Hradec Králové following written informed consent approved by the University Hospital Ethics Committee (study no. 202002 […]). Subjects' characteristics are shown in Supplementary Materials (Table S1). The NSCLC samples were collected immediately after the lung lobectomy and excision of tumor by the pathologist, which was followed by the isolation of cancer cells using a modified procedure based on previously published protocols. The tumor tissues were minced in small pieces around 2-5 mm in diameter using a scalpel. To liberate the cells from tissues, the minced pieces were transferred into the prewarmed 0.1% collagenase in 1 × MEM and placed in the water bath for 30 min. Following the incubation, BSA in MEM was added and cells were sieved through a 40 μm-sized cell strainer. Then, the solution was centrifuged at 200× g for 5 min. The pellet was resuspended with a BSA solution in MEM. […] The cells there trypsinized on ice, resuspended with 2% FBS in cold PBS solution and then fluorescence was detected using flow cytometer (BD FACSCanto II, Allschwil, Switzerland). […] For data presentation, the ratios of relative fluorescence units (RFUs) from treated samples to RFUs from vehicle-treated (control) cells were computed generating “relative substrate accumulation”.

Series [10] has as its target T1, ABCB1. Conditions: DI study in healthy subjects; cited from earlier work.
The subject of series [11] is KB drug resistant cell lines. Conditions: in vitro KB drug resistant cell lines; cited from earlier work.
[12] abbreviates: 2 µM daunorubicin, 1 h, read-out: IC50, relative daunorubicin accumulation.

Read-outs that look alike come from different tables or passages of the source.

Chain of ABCC1 (P33527 whole entry): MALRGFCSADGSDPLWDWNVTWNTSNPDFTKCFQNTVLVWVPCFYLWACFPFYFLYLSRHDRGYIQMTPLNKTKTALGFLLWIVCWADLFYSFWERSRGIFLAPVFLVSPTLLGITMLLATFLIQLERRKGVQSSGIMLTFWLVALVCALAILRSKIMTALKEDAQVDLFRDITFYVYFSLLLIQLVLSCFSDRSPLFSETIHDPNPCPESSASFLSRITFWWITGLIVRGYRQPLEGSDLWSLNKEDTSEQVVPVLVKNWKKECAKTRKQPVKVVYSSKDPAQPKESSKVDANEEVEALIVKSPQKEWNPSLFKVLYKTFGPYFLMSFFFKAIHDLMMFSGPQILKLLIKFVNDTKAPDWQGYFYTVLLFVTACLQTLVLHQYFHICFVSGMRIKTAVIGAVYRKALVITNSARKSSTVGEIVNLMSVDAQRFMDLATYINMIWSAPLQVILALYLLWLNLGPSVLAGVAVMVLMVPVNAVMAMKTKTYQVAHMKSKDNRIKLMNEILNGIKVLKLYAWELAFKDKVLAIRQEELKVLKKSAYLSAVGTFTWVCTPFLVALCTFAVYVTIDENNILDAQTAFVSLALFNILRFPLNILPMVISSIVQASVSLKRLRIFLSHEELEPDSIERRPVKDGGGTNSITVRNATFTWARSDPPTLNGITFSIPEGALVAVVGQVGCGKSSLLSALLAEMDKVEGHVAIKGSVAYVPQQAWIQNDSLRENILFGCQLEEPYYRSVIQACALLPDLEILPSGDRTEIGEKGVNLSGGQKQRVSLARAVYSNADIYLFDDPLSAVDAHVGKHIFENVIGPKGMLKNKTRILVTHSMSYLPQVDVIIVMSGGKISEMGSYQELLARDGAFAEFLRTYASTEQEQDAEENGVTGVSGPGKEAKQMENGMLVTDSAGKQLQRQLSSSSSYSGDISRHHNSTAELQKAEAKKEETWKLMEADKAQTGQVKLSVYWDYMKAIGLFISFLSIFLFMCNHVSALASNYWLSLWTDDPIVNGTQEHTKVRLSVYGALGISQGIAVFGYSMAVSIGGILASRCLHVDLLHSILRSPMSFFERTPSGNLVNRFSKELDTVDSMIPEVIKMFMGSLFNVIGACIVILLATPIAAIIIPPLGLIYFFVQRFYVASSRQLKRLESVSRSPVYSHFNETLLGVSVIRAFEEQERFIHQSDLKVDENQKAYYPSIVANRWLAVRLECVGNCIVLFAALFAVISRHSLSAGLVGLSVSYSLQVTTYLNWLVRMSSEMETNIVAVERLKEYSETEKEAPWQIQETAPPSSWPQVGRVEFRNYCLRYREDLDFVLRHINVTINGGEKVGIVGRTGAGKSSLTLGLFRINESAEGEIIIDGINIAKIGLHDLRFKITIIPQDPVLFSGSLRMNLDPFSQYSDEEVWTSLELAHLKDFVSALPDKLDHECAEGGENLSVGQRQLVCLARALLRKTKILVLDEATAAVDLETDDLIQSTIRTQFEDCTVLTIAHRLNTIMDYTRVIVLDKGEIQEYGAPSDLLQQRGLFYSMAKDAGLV
T4 sequence (P20813 whole entry): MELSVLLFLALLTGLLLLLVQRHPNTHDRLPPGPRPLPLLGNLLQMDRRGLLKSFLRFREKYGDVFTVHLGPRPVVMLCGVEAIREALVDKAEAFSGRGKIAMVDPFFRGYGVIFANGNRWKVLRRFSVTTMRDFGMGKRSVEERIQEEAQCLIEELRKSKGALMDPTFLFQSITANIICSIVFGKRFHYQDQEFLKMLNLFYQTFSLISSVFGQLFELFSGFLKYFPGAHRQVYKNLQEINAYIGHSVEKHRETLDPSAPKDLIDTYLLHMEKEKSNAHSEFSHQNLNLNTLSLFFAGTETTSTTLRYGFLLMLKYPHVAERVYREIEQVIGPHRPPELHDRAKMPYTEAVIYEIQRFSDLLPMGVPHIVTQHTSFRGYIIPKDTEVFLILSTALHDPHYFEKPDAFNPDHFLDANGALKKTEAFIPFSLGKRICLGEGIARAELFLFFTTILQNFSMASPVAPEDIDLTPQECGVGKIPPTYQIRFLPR
T2 sequence (P05177 2-516 limits assumed): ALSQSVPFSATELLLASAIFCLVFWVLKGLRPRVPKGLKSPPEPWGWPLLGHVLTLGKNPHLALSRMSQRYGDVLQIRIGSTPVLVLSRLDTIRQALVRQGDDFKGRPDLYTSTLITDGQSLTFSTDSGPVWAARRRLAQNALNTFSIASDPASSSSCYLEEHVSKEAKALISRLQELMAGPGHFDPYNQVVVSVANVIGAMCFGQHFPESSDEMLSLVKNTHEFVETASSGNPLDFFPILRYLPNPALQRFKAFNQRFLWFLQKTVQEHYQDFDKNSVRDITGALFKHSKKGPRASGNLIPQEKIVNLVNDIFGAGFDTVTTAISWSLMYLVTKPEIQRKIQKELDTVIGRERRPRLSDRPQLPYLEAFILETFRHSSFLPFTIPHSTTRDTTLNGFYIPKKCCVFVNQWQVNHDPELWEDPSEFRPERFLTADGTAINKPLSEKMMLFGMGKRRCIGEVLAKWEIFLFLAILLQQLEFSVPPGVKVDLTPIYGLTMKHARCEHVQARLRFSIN
T5 sequence (P10632 whole entry): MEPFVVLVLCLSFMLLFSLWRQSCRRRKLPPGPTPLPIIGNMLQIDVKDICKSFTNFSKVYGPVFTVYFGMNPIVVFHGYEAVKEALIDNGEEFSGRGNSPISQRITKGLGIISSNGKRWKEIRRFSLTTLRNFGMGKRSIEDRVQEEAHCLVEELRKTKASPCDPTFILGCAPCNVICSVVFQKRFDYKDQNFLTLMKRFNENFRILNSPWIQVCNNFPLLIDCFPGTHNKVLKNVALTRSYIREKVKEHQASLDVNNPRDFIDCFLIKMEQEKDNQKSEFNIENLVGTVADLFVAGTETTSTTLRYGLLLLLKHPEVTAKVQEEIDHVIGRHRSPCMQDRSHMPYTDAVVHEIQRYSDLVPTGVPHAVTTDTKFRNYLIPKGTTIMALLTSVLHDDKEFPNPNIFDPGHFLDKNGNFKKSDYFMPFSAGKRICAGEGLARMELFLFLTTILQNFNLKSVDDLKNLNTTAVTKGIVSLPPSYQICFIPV
T6 sequence (P10635 whole entry): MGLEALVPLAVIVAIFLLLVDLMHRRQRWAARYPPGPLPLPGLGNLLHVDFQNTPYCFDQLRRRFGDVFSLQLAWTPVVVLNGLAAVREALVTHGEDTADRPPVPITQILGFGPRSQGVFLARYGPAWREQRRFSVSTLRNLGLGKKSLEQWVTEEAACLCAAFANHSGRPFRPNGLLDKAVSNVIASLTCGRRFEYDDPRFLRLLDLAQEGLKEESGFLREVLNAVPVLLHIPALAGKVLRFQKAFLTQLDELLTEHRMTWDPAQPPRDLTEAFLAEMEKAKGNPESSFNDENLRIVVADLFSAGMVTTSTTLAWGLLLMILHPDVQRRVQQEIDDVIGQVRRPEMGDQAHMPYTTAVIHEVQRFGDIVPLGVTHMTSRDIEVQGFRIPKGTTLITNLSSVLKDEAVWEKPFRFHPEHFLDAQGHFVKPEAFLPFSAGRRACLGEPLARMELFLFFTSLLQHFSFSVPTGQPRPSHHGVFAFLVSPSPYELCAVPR

A word on the IC50: it is the concentration that gives 50% inhibition. As for `CN1CCC(COc2cnc(-c3cccc(Cn4nc(-c5cccc(C#N)c5)ccc4=O)c3)nc2)CC1` [tepotinib, Tepotinib], the IC50 in [1] (setting [12]) is 1.28 µM; in [1] (8 µM hoechst 33342, read-out: IC50, relative Hoechst 33342 accumulation), 3.15 µM; in [2] (2 µM calcein AM, read-out: IC50, relative calceinAM accumulation), 24.5 µM; in [2] (setting [12]), more than 50 µM; in series [3] it was more than 50 µM; in series [4] it was 38.8 µM. Further, the IC50 in series [5] was more than 50 µM; in [6], 20.4 µM; in series [7] it was more than 50 µM; in series [8], 16.2 µM. Further, the “Effect on accumulation of mitoxantrone and daunorubicin” value in [9] is “significantly increased the accumulation of model anticancer drugs in some of the primary samples”. For the same compound, the “Effect on AUC and Cmax of ABCB1 substrate dabigatran etexilate” value in series [10] was “significantly increased AUC and Cmax”. Further, the “Effect on anticancer effect of paclitaxel and vincristine” value in series [11] is “potentiate the anticancer effect of paclitaxel and vincristine”.
